{"source": "patent US20210316013A1", "about": "“HAEMATOPOIETIC STEM CELL-GENE THERAPY FOR WISKOTT-ALDRICH SYNDROME” (priority 2018, published 2021)", "test_system": "Jurkat cells", "assay": "Titration of 6TG dosing window, Jurkat cell viability", "assay_type": "cell-based", "conditions": "6TG 0.01-100 μM, viability after 2 days, cell counter TC20", "experimental": "Jurkat cells were incubated in a 96-well plate with different concentrations of 6TG (0.01-100 μM). After 2 days, viability of the cells was measured with cell counter TC20. Optimal 6TG dose for Jurkat cells was estimated to be approx. 504. A nominal concentration of 2.5 μM 6TG was elected for subsequent chemo-selection experiments. The results are illustrated in FIG. 20A."}
{"smiles": "Nc1nc2nc[nH]c2c(=S)[nH]1", "note": "[Candidate 6TG, 6-thioguanine]", "values": [{"measurement": "Optimal 6TG dose for Jurkat cells", "value": "approx. 504"}]}
